# Data reported in patent US20080214844A1, “Icaritin and desmethylicaritin as anti-cancer agents” (priority 2007, published 2008).
# Experiments:
# LNCAP = experiment: MTT cell viability assay, LNCAP; format: cell-based, human; settings: Prostate, 3 days culture
# Procedure: (§1) 26 cancer cell lines were grown in normal growth medium in the presence of different concentrations Icaritin or Desmethylicaritin. After culture for 3 days, the cell viability was then measured by an MTT assay. […] Some EC50s were lower than 10 uM for these two compounds. […] Whereas, normal human mammary gland epithelial cells (MCF10A) were not sensitive to Icaritin and Desmethylicaritin. These cells grew well when treated with these two compounds at a concentration of 50 uM.
# D145 = experiment: MTT cell viability assay, D145; format: cell-based, human; settings: D145, Prostate, 3 days culture
# Procedure: as §1
# PC3 = experiment: MTT cell viability assay, PC3; format: cell-based, human; settings: PC3, Prostate, 3 days culture
# Procedure: as §1
# HCT-116 = experiment: MTT cell viability assay, HCT-116; format: cell-based, human; settings: HCT-116, Colon, 3 days culture
# Procedure: as §1
# Widr = experiment: MTT cell viability assay, Widr; format: cell-based, human; settings: Colon, 3 days culture
# Procedure: as §1
# HT29 = experiment: MTT cell viability assay, HT29; format: cell-based, human; settings: HT29, Colon, 3 days culture
# Procedure: as §1
# LoVo = experiment: MTT cell viability assay, LoVo; format: cell-based, human; settings: Colon, 3 days culture
# Procedure: as §1
# CCL-225 = experiment: MTT cell viability assay, CCL-225; format: cell-based, human; settings: CCL-225, Colon, 3 days culture
# Procedure: as §1
# CCL-247 = experiment: MTT cell viability assay, CCL-247; format: cell-based, human; settings: CCL-247, Colon, 3 days culture
# Procedure: as §1
# NCI-H23 = experiment: MTT cell viability assay, NCI-H23; format: cell-based, human; settings: NCI-H23, Lung, 3 days culture
# Procedure: as §1
# A549 = experiment: MTT cell viability assay, A549; format: cell-based, human; settings: A549, Lung, 3 days culture
# Procedure: as §1
# MDA-MB-231 = experiment: MTT cell viability assay, MDA-MB-231; format: cell-based, human; settings: MDA-MB-231, Breast, 3 days culture
# Procedure: as §1
# MDA-MB-435 = experiment: MTT cell viability assay, MDA-MB-435; format: cell-based, human; settings: MDA-MB-435, Breast, 3 days culture
# Procedure: as §1
# AU-565 = experiment: MTT cell viability assay, AU-565; format: cell-based, human; settings: AU-565, Breast, 3 days culture
# Procedure: as §1
# BT-549 = experiment: MTT cell viability assay, BT-549; format: cell-based, human; settings: BT-549, Breast, 3 days culture
# Procedure: as §1
# MCF-7 = experiment: MTT cell viability assay, MCF-7; format: cell-based, human; settings: MCF-7, Breast, 3 days culture
# Procedure: as §1
# Caki-1 = experiment: MTT cell viability assay, Caki-1; format: cell-based, human; settings: Caki-1, Kidney, 3 days culture
# Procedure: as §1
# ACHN = experiment: MTT cell viability assay, ACHN; format: cell-based, human; settings: Kidney, 3 days culture
# Procedure: as §1
# 786-O = experiment: MTT cell viability assay, 786-O; format: cell-based, human; settings: Kidney, 3 days culture
# Procedure: as §1
# SN12C = experiment: MTT cell viability assay, SN12C; format: cell-based, human; settings: Kidney, 3 days culture
# Procedure: as §1
# SKOV3 = experiment: MTT cell viability assay, SKOV3; format: cell-based, human; settings: SKOV3, Ovary, 3 days culture
# Procedure: as §1
# IGROV1 = experiment: MTT cell viability assay, IGROV1; format: cell-based, human; settings: IGROV1, Ovary, 3 days culture
# Procedure: as §1
# Mid PaCa-2 = experiment: MTT cell viability assay, Mid PaCa-2; format: cell-based, human; settings: Mid PaCa-2, Pancreas, 3 days culture
# Procedure: as §1
# U-251 = experiment: MTT cell viability assay, U-251; format: cell-based, human; settings: U-251, Glioblastoma, 3 days culture
# Procedure: as §1
# SK-MEL-5 = experiment: MTT cell viability assay, SK-MEL-5; format: cell-based, human; settings: SK-MEL-5, Skin, 3 days culture
# Procedure: as §1
# G-361 = experiment: MTT cell viability assay, G-361; format: cell-based, human; settings: G-361, Skin, 3 days culture
# Procedure: as §1
# Raji = experiment: MTT cell viability assay, Raji; format: cell-based, human; settings: Lymphoma, 3 days culture
# Procedure: as §1
# Jurkat T cell = experiment: MTT cell viability assay, Jurkat T cell; format: cell-based, human; settings: Leukemia, 3 days culture
# Procedure: as §1
# MCF-10a = experiment: MTT cell viability assay, MCF-10a normal breast epithelial cells; format: cell-based, human
# Procedure: as §1
# [1] = tested on: FAS protein levels in LNCaP cells; experiment: Western blot analysis for FAS protein levels; format: cell-based, human
# [2] = tested on: LNCaP cells and MDA-MB-231 cells; experiment: Synthesis of lipid classes in cancer cells; format: cell-based, human
# Procedure: Icaritin and Desmethylicaritin decrease Lipogenesis in Prostate and Breast Cancer cells via inhibition of fatty acid synthase (FAS) Activity. Protein extracts from LNCaP cells, which had been ^14C-labeled with malonyl-CoA, were pretreated with these two compounds. A concentration of 0.5 μM Icaritin or Desmethylicaritin reduced the in vitro enzymatic FAS activity to less than 50%. […] Consistent with their FAS inhibitory effect, inhibition of lipogenesis by Icaritin and Desmethylicaritin affected the synthesis of phospholipids (including phosphatidylcholine, phosphatidylethanolamine, phosphatidylinositol, phosphatidylserine, and sphingomyelin) and of triglycerides in LNCaP cells and MDA-MB-231 cells. […] Cholesterol synthesis, however, accounts for less than 10% of the total lipogenic activity in LNCaP and MDA-MB-231 cancer cells, whereas ˜75 and 15% of the lipogenic activity in these cells represents phospholipid and triglyceride synthesis, respectively.
# estrogen receptor = settings: mediated by the estrogen receptor; cited from earlier work
# [3] = tested on: highly metastatic human lung cancer cells (PG); settings: PG cells in vitro; cited from earlier work
# [4] = tested on: hepatoma or leukemia cell lines; settings: other studies; cited from earlier work
smiles,measurement,setting,value
CC(C)=CCc1c(O)cc(O)c2c(=O)c(O)c(-c3ccc(O)cc3)oc12 [Desmethylicaritin],IC50,LNCAP,6.1 µM
same,IC50,D145,9.8 µM
same,IC50,PC3,10.6 µM
same,IC50,HCT-116,6.9 µM
same,IC50,Widr,11.3 µM
same,IC50,HT29,16.8 µM
same,IC50,LoVo,10.5 µM
same,IC50,CCL-225,8.9 µM
same,IC50,CCL-247,17.6 µM
same,IC50,NCI-H23,6.5 µM
same,IC50,A549,10.7 µM
same,IC50,MDA-MB-231,6.5 µM
same,IC50,MDA-MB-435,12.7 µM
same,IC50,AU-565,8.9 µM
same,IC50,BT-549,9.6 µM
same,IC50,MCF-7,24.8 µM
same,IC50,Caki-1,7.5 µM
same,IC50,ACHN,9.7 µM
same,IC50,786-O,10.9 µM
same,IC50,SN12C,15.9 µM
same,IC50,SKOV3,10.4 µM
same,IC50,IGROV1,11.2 µM
same,IC50,Mid PaCa-2,8.6 µM
same,IC50,U-251,7.3 µM
same,IC50,SK-MEL-5,10.8 µM
same,IC50,G-361,7.4 µM
same,IC50,Raji,5.2 µM
same,IC50,Jurkat T cell,4.9 µM
same,IC50,"MCF-10a; MCF-10a, Normal breast epithelial cells, 3 days culture, MTT",> 50 µM
same,sensitivity of normal human mammary gland epithelial cells (MCF10A),MCF-10a; cells grew well at 50 uM,not sensitive
same,FAS protein levels (Western blot),[1],did not influence
same,synthesis of cholesterol,[2]; LNCaP and MDA-MB-231 cells,decreased
same,synthesis of phospholipids and of triglycerides,[2]; LNCaP cells and MDA-MB-231 cells,affected
same,estrogenic effect,estrogen receptor,week phytoestrogens
"COc1ccc(-c2oc3c(CC=C(C)C)c(O[C@@H]4O[C@H](CO)[C@@H](O)[C@H](O)[C@H]4O)cc(O)c3c(=O)c2O[C@@H]2O[C@@H](C)[C@H](O)[C@@H](O)[C@H]2O)cc1 [ICA, Icariin]",PG cells adhesive ratio to laminin substrate,[3],decreased
same,ability of invasion or migration,[3],decreased
same,cAMP/cGMP ratio,[3],increased
same,distribution of PG cells cycle,[3],reduce S phase
same,expression of membrane HLA-ABC antigen,[3],increase
same,level of cAMP in PG cells,[3],increased
same,level of cGMP,[3],reduced
same,membrane fluidity of PG,[3],enhance
same,inhibition of hepatoma or leukemia cell lines,[4],no inhibition
